# Publication PMC7756582, “Prodrugs of γ‐Alkyl‐Modified Nucleoside Triphosphates: Improved Inhibition of HIV Reverse Transcriptase” (Angewandte Chemie (International Ed. in English), 2020)
# Target: T1, human DNA polymerase γ (Homo sapiens, UniProt P54098)
# T1 construct: purchased Roboklon
# T1 sequence (P54098 1-1239): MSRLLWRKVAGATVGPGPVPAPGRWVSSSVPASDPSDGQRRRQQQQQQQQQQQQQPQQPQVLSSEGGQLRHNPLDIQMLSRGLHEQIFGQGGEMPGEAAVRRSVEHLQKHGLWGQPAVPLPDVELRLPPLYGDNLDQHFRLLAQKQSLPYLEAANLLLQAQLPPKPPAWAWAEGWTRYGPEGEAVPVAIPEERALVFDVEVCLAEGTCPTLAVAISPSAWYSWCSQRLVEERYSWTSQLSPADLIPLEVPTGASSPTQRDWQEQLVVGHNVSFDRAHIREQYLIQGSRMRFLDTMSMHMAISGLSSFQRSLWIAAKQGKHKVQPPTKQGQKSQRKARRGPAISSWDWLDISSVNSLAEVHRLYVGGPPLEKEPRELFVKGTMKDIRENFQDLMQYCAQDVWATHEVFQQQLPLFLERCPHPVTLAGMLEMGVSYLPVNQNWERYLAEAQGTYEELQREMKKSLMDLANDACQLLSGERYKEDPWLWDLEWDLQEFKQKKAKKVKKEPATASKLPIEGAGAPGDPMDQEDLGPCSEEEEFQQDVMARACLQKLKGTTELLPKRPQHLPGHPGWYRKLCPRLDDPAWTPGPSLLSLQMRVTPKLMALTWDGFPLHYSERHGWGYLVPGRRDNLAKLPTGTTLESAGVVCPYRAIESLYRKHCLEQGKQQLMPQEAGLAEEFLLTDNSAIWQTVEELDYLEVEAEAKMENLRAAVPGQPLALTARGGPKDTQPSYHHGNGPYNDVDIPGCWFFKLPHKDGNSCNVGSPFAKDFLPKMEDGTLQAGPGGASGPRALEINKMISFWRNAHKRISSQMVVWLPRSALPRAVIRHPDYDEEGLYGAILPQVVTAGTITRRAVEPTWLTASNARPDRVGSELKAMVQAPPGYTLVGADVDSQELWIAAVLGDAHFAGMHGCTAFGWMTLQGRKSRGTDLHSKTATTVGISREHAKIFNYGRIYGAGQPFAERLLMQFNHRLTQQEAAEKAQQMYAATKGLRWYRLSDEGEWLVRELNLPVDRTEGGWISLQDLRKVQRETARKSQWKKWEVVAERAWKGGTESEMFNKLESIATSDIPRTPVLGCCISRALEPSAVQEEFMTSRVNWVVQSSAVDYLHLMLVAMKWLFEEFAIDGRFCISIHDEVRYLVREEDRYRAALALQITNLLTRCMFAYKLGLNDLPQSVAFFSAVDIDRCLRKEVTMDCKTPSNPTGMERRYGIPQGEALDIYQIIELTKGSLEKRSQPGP
# Experiment: Primer extension assay with human DNA polymerase γ
# Type: biochemical
# Settings: dNTPs 250 μM, Pol γ 4 U
# Experimental: Two different set‐ups have been used. First, a mixture of dATP, dCTP, dGTP, and γ‐alkyl‐TTP (N*) or ‐d4TTP (T*) was used as a mixture. The results obtained from these experiments were compared to those in which just γ‐alkyl‐TTP (N) or d4TTP (T) was used. In each experiment a primer extension without added polymerase (negative control, ‐ lane) and an experiment in which all four canonical NTPs were added (positive control, +lane) were used as controls.
# Anti-HIV activity assay: Inhibition of HIV-1(IIIB)- and HIV-2(ROD)-induced cytopathicity in wild-type CEM/0 and thymidine kinase-deficient CEM/TK- cell cultures was measured in microtiter 96-well plates containing ~3·105 CEM cells/mL infected with 100 CCID50 of HIV per milliliter and containing appropriate dilutions of the test compounds. After 4−5 days of incubation at 37 °C in a CO2-controlled humidified atmosphere, CEM giant (syncytium) cell formation was examined microscopically. The EC50 (50% effective concentration) was defined as the compound concentration required to inhibit HIV-induced giant cell formation by 50%. […]
# 2) For HIV- RT assay: The final assay solution (10 µL) consists of 50 mM Tris-HCl (pH 8.6 at 22 °C), 10 mM MgCl2, 40mM KCl, dNTPs 66 µM, HIV RT 6 U, Hybrid 0.32 µM in a reaction volume of 10 µL, incubated 37 °C for 15 min, 80 °C for 3 min; 50 mA, 45w for 4 h. […] The result was visualized by fluorescence imaging. […]
compound,measurement,value
"Cc1cn(C2C=CC(COP(=O)(O)OP(=O)(O)OP(=O)(O)O)O2)c(=O)[nH]c1=O (stereo not shown) [2 t, d4TTP, reference compound]",primer extension by DNA polymerase γ (substrate properties),not substrates
